Test results: patent US10767179B2, “MicroRNA composition for the treatment of neuroblastoma” (THE BOARD OF REGENTS OF THE UNIVERSITY OF TEXAS SYSTEM, priority 2014, dated 2020)

Columns and labels:
[1] = system: BE(2)-C cells; assay: Cell Viability Assay (CellTiter-Glo); assay type: cell-based; conditions: transfected with mimic for 4 days
Experimental: Cell Viability Assay. Cells were plated in 96-well format and treated as specified. After culturing for 120 h, cell viability was determined using the CellTiter-Glo Luminescent Cell Viability Assay (Promega).

[2] = system: CDK4; assay: mRNA expression profiling (Illumina microarray); assay type: cell-based; conditions: change of expression induced by miRNA overexpression
Experimental: (§1) Mrna And Mirna Expression. Total RNA was isolated as previously described (Du et al., Mol Cancer Res, 2009, 7(8):1234-43). mRNA expression profiling was done using the Illumina mRNA WG-6 v3 microarray platform. miRNA expression was measured by qRT-PCR using TaqMan microRNA Assays (Life Technologies) with average expression of RNU44 RNA, RNU19 RNA, GAPDH mRNA and 18s rRNA used as controls for normalizing RNA loading.

[3] = system: AHR; assay: mRNA expression profiling (Illumina microarray); assay type: cell-based; conditions: change of expression induced by miRNA overexpression
Experimental: as §1

[4] = system: BDNF; assay: mRNA expression profiling (Illumina microarray); assay type: cell-based; conditions: change of expression induced by miRNA overexpression
Experimental: as §1

[5] = system: RHOQ; assay: mRNA expression profiling (Illumina microarray); assay type: cell-based; conditions: change of expression induced by miRNA overexpression
Experimental: as §1

[6] = system: CEBPA; assay: mRNA expression profiling (Illumina microarray); assay type: cell-based; conditions: change of expression induced by miRNA overexpression
Experimental: as §1

[7] = system: STAT3; assay: mRNA expression profiling (Illumina microarray); assay type: cell-based; conditions: change of expression induced by miRNA overexpression
Experimental: as §1

[8] = system: RARG; assay: mRNA expression profiling (Illumina microarray); assay type: cell-based; conditions: change of expression induced by miRNA overexpression
Experimental: as §1

[9] = system: SHC3; assay: mRNA expression profiling (Illumina microarray); assay type: cell-based; conditions: change of expression induced by miRNA overexpression
Experimental: as §1

[10] = system: THRB; assay: mRNA expression profiling (Illumina microarray); assay type: cell-based; conditions: change of expression induced by miRNA overexpression
Experimental: as §1

[11] = system: PML; assay: mRNA expression profiling (Illumina microarray); assay type: cell-based; conditions: change of expression induced by miRNA overexpression
Experimental: as §1

[12] = system: 3′UTR of STAT3; assay: Luciferase Reporter Assay, STAT3 3'UTR; assay type: cell-based, human; conditions: BE(2)-C cells, 25 nM mimic, 72 h
Description: Luciferase Reporter Assay. The segments of the wildtype 3′ UTRs for CDK4 and STAT3 containing the predicted target sites of miR-506-3p and miR-124-3p were cloned from human genomic DNA. Mutant constructs were generated with the seed target site (GUGCCUU (SEQ ID NO:4)) replaced by CACGGUU (SEQ ID NO:5). The 3′ UTRs were cloned downstream of the firefly luciferase coding sequences into the pmirGLO dual-luciferase reporter (Promega), a vector containing both firefly and Renilla luciferase cDNAs under the control of separate promoter/terminator systems. The firefly luciferase was used as the primary reporter for miRNA regulation of the 3′ UTR. The Renilla luciferase is an internal control for normalization. BE(2)-C cells were co-transfected with luciferase reporters (0.8 ng/μl) and miRNA mimics or control oligonucleotide (oligo) (25 nM). Luciferase activities were measured after 72 h using the Dual-Glo Luciferase Assay System (Promega). Firefly luciferase activity was normalized to Renilla luciferase activity to evaluate the effect of the miRNAs.

[13] = system: BE(2)-C cells; assay: High-content screen: detection and quantification of neurite outgrowth; assay type: cell-based; set-up: key: neurite length normalized to the mean of its plate; conditions: 25 nM miRNA mimic, 4 days transfection, normalized to plate mean
Experimental: FIG. 2A-2C. HCS screening of miRNA mimics identifies miRNAs that induce neurite outgrowth in BE(2)-C cells. (A-B) 2,500 cells were reverse-transfected with 25 nM miRNA mimics in 96-well plates. After 4 days transfection, relative neurite lengths were quantified as above. (A) The distribution of post-normalized neurite length measurements (grey histogram) for individual miRNA mimics from the screen and the fitted Gamma distribution curve (␣=3.27, ┘=0.444) (B) Correlation between two independent neurite length measurements for one library plate. Cells were transfected with 25 nM mimics in two independent 96-well plates. Normalized neurite lengths were measured as above. Correlation of neurite length between the two plates was analyzed using two-tailed Pearson Correlation with p<0.05 considered significant. (C) The distribution of the neurite lengths for untreated BE(2)-C cells. 2,500 Cells were plated into each well in 96 well plates. After 4 days of culture, neurite lengths were analyzed as above. Shown are the neurite length distribution histogram, the empirical density curve, and the fitted Gamma distribution curve (␣=30.23, ␣=0.033).
Detection and Quantification of Neurite Outgrowth. Cells were plated and treated in 96-well plates. For detecting neurite outgrowth, cells were placed into ZOOM IncuCyte Imaging System (Essen BioScience) and cell images were taken under 20× microscopic magnification. For detecting neurite outgrowth in a time-dependent manner, cell images were taken every 6 h. The neurite lengths associated with each treatment were calculated using the neurite definition defined for each specific cell line using the NeuroTrack system (Essen BioScience).
Analysis of HCS Data. The relative neurite length associated with cells in each well on the screen plates was determined as above. In order to allow for plate-to-plate comparison, neurite length associated with each well in each plate was first internally normalized to the mean of the corresponding plate, and multiple screen plates were then aggregated together to generate the neurite length distribution. The data were then further analyzed to determine the distribution of the unaffected cells as described below, and to identify differentiation-inducing miRNA mimics.
Statistical Analysis. For HCS, p-value for neurite length associated with each miRNA mimic was evaluated by assuming the distribution of neurite lengths follows Gamma distribution, and false Discovery Rate (FDR) was determined by Benjamini-Hochberg correction method for multiple tests (Benjamin, Journal of the Royal Statistical Society Series B (Methodological), 1995, 57(1):12). […] For all other conditions, the statistical significance for each treatment was determined using t-test by comparing the treatment group with control, with p<0.05 considered statistically significant.

[14] = system: BE(2)-C cells; assay: as above; assay type: cell-based; conditions: 4 days, dose-dependent, vs 0 nM

hsa-miR-506-3p: miRNA mimic (Dharmacon), mature sequence UAAGGCACCCUUCUGAGUAGA (SEQ ID NO: 1) (UAAGGCACCCUUCUGAGUAGA(1); as printed in the source, key not given here)
Cell viability when reaching plateau [1]: 6.3±0.3%
Gene expression CDK4 [2]: 0.39
Gene expression AHR [3]: 1.19
Gene expression BDNF [4]: 1.04
Gene expression RHOQ [5]: 1.07
Gene expression CEBPA [6]: 0.88
Gene expression STAT3 [7]: 0.75
Gene expression RARG [8]: 1.02
Gene expression SHC3 [9]: 1.08
Gene expression THRB [10]: 1.04
Gene expression PML [11]: 1.01
Target site in the 3′UTR of STAT3 by luciferase reporter [12]: validated
Neurite length (mean ± SD) [13]: 10.04 ± 3.41
Concentration at which induction of neurite outgrowth is significant [14]: 0.1 nM
